Laboratory results reported in ChEMBL document CHEMBL3046837, “Synthesis of some novel amino and thiotetrazole purine derivatives and investigation of their antimicrobial activity and DNA interactions” (Med Chem Res, 2013).
The source made the active and inactive calls.

What was measured:
[1] = system: Enterococcus faecalis; test: Antibacterial activity against Enterococcus faecalis […] after 24 hr by disk diffusion method; assay type: functional, organism-based
[2] = system: Candida tropicalis; test: Antifungal activity against Candida tropicalis ATCC 13803 after 72 hr by disk diffusion method; assay type: functional, organism-based
[3] = system: Escherichia coli; test: Antibacterial activity against Escherichia coli ATCC 25922 after 24 hr by disk diffusion method; assay type: functional, organism-based
[4] = system: Escherichia coli; test: Antibacterial activity against Escherichia coli ATCC 35218 after 24 hr by disk diffusion method; assay type: functional, organism-based
[5] = system: Escherichia coli; test: Binding affinity to Escherichia coli pBR322 DNA assessed as decrease in mobility of form 1 DNA at low concentration after 24 hr by agarose gel electrophoresis
[6] = system: Candida albicans; test: Antifungal activity against Candida albicans ATCC 10231 after 72 hr by disk diffusion method; assay type: functional, organism-based
[7] = system: Escherichia coli; test: Covalent binding to Escherichia coli pBR322 DNA Guanine-guanine site assessed as inhibition of BamH1-mediated restriction digestion at 1250 uM by restriction endonuclease analysis
[8] = system: Proteus vulgaris; test: Antibacterial activity against Proteus vulgaris ATCC 8427 after 24 hr by disk diffusion method; assay type: functional, organism-based
[9] = system: Bacillus subtilis; test: Antibacterial activity against Bacillus subtilis […] after 24 hr by disk diffusion method; assay type: functional, organism-based
[10] = system: Bacillus cereus; test: Antibacterial activity against Bacillus cereus NRLL B-3008 after 24 hr by disk diffusion method; assay type: functional, organism-based
[11] = system: Pseudomonas aeruginosa; test: Antibacterial activity against Pseudomonas aeruginosa ATCC 27853 after 24 hr by disk diffusion method; assay type: functional, organism-based
[12] = system: Staphylococcus aureus; test: Antibacterial activity against Staphylococcus aureus ATCC 25923 after 24 hr by disk diffusion method; assay type: functional, organism-based
[13] = system: Escherichia coli; test: Covalent binding to Escherichia coli pBR322 DNA adenine-adenine site assessed as inhibition of Hind3-mediated restriction digestion at 1250 uM by restriction endonuclease analysis
[14] = system: Escherichia coli; test: Covalent binding to Escherichia coli pBR322 DNA assessed as disappearance of form 2 DNA at low concentration after 24 hr by agarose gel electrophoresis
[15] = system: Escherichia coli; test: Binding affinity to Escherichia coli pBR322 DNA assessed as appearance of DNA fragments at low concentration after 24 hr by agarose gel electrophoresis
[16] = system: Escherichia coli; test: Covalent binding to Escherichia coli pBR322 DNA assessed as decrease in intensity of form 2 DNA at low concentration after 24 hr by agarose gel electrophoresis
[17] = system: Escherichia coli; test: Covalent binding to Escherichia coli pBR322 DNA assessed as increase in intensity of form 1 DNA at low concentration after 24 hr by agarose gel electrophoresis

Measured: Activity

CCCCCCn1cnc2c(Sc3nnnn3C)ncnc21
active: [5] | [7] | [13] | [14]
not listed: [15] | [16] | [17]
inactive: all other assays above

Cn1nnnc1Sc1ncnc2c1ncn2CC1CCCCC1
active: [15] | [16] | [17] | [7] | [13]
not listed: [5] | [14]
inactive: all other assays above

CCCn1cnc2c(Nc3nnn[nH]3)ncnc21
active: [15] | [5] | [13]
not listed: [14] | [16] | [17]
inactive: all other assays above
